Measurements reported in US9801901B2, “Alginate oligomers for use in overcoming multidrug resistance in bacteria” (priority 2009, dated 2017).
In brackets after ≈: the same amount, converted by molar mass. Read-outs that look alike come from different tables or passages of the source. Marks after values point to notes of the source that are not given here.

Key:
[1] = system: Acinetobacter baumannii (Egypt, V9); assay: MIC-assay, Mueller-Hinton broth with G-block alginate, 384-well, OD600
[2] = system: Klebsiella pneumoniae KP05 506 from India (V3); assay: MIC assay, CAMHB with alginate oligomer, no visible growth; assay type: cell-based; conditions: Klebsiella pneumoniae, Table 1, V3 KP05 506, read-out: MIC
[3] = system: V10 (Egypt) Acinetobacter lwoffii; assay: as above; assay type: cell-based; conditions: Table 5, V10 MDR Acin. lwoff
[4] = system: Acinetobacter lwoffii (6056, V22); assay: MIC-assay, Mueller-Hinton broth with G-block alginate, 384-well, OD600
[5] = system: V23 1322 Burkholderia cepacia; assay: MIC assay, CAMHB with alginate oligomer, no visible growth; assay type: cell-based
[6] = system: PA01 Pseudomonas aeruginosa ATCC 15692; assay: MIC assay, two-fold antibiotic dilutions in CAMHB with alginate oligomer, no visible growth; assay type: cell-based; conditions: Pseudomonas aeruginosa, read-out: MIC
[7] = system: Pseudomonas aeruginosa MDR 301 from Poland (V2); assay: MIC assay, CAMHB with alginate oligomer, no visible growth; assay type: cell-based; conditions: Pseudomonas aeruginosa, read-out: MIC
[8] = system: V9 (Egypt) Acinetobacter baumannii; assay: as above; assay type: cell-based; conditions: Table 5, V9 MDR Acin. baum
[9] = system: Pseudomonas aeruginosa ATCC 39324, mucoid type strain (R79); assay: as above; assay type: cell-based; conditions: Pseudomonas aeruginosa, read-out: MIC
[10] = system: Pseudomonas aeruginosa CFA 24-1, clinical mucoid strain (R80); assay: as above; assay type: cell-based; conditions: Pseudomonas aeruginosa, read-out: MIC
[11] = system: Burkholderia cepacia (1322, V23); assay: MIC-assay, Mueller-Hinton broth with G-block alginate, 384-well, OD600
MDR Pseudomonas strains = assay: MIC assay of Example 1, summary over the MDR Pseudomonas strains; assay type: cell-based, Pseudomonas aeruginosa
V5 AIM-1 E. coli = assay: MIC assay, CAMHB with alginate oligomer, no visible growth; assay type: cell-based; conditions: Escherichia coli, Table 4, V5 MDR E. coli
From the text: The study described in Example 1 was repeated with the following strains of bacteria and antibiotics as detailed in Tables 4, 5 and 6.

[12] = Table 9, G-block (OligoCF-5/20) 0%
[13] = Table 9, G-block (OligoCF-5/20) 2%
[14] = Table 9, G-block (OligoCF-5/20) 6%
[15] = Table 9, G-block (OligoCF-5/20) 10%
[16] = Acinetobacter lwoffii, OligoCF-5/20 0G, read-out: MIC
[17] = Burkholderia cepacia, Table 5, V23 MDR Burk cep, OligoCF-5/20 0G, read-out: MIC
[18] = Burkholderia cepacia, Table 6, V23, Experiment 1 (18-03-10), OligoCF-5/20 0G, read-out: MIC
[19] = Burkholderia cepacia, Table 6, V23, Experiment 3 (19-03-10), OligoCF-5/20 0G, read-out: MIC
[20] = Table 5, V23 MDR Burk cep, OligoCF-5/20 +10% G
[21] = Table 6, V23, Experiment 1 (18-03-10), OligoCF-5/20 +10% G
[22] = Table 6, V23, Experiment 2 (18-03-10), OligoCF-5/20 +6% G
[23] = Table 6, V23, Experiment 2 (18-03-10), OligoCF-5/20 +10% G
[24] = Table 6, V23, Experiment 3 (19-03-10), OligoCF-5/20 +6% G
[25] = Table 6, V23, Experiment 3 (19-03-10), OligoCF-5/20 +10% G
[26] = Acinetobacter baumannii, OligoCF-5/20 0G, read-out: MIC
[27] = Table 8, G-block (OligoCF-5/20) 10%

## CC(C)(O/N=C(\C(=O)N[C@@H]1C(=O)N2C(C(=O)[O-])=C(C[n+]3ccccc3)CS[C@H]12)c1csc(N)n1)C(=O)O [Ceftazidime]
[1]; [12]
  MIC: > 16 µg/mL
[1]; [13]
  MIC: > 16 µg/mL
[1]; [14]
  MIC: > 16 µg/mL
[1]; [15]
  MIC: > 16 µg/mL
[2]; OligoCF-5/20 0G
  MIC: > 1020 µg/mL
[2]; OligoCF-5/20 +2% G
  MIC: > 1020 µg/mL
[2]; OligoCF-5/20 +6% G
  MIC: > 1020 µg/mL
[2]; OligoCF-5/20 +10% G
  MIC: > 1020 µg/mL
[3]; [16]
  MIC: 2 µg/mL (≈ 3.66 µM)
[3]; OligoCF-5/20 +2% G
  MIC: 2 µg/mL (≈ 3.66 µM)
[3]; OligoCF-5/20 +6% G
  MIC: <0.5^† μg/ml
[3]; OligoCF-5/20 +10% G
  MIC: <0.5^† μg/ml
[4]; [12]
  MIC: 8 µg/mL (≈ 14.6 µM)
[4]; [13]
  MIC: 4 µg/mL (≈ 7.32 µM)
[4]; [14]
  MIC: 2 µg/mL (≈ 3.66 µM)
[4]; [15]
  MIC: 2 µg/mL (≈ 3.66 µM)
[5]; [17]
  MIC: 64 µg/mL (≈ 117 µM)
[5]; [18]
  MIC: 128 µg/mL (≈ 234 µM)
[5]; Burkholderia cepacia, Table 6, V23, Experiment 2 (18-03-10), OligoCF-5/20 0G, read-out: MIC
  MIC: 64 µg/mL (≈ 117 µM)
[5]; [19]
  MIC: 64 µg/mL (≈ 117 µM)
[5]; Table 5, V23 MDR Burk cep, OligoCF-5/20 +2% G
  MIC: 32^† μg/ml
[5]; Table 5, V23 MDR Burk cep, OligoCF-5/20 +6% G
  MIC: 8 µg/mL (≈ 14.6 µM)
[5]; [20]
  MIC: <0.5^† μg/ml
[5]; Table 6, V23, Experiment 1 (18-03-10), OligoCF-5/20 +2% G
  MIC: 64^† μg/ml
[5]; Table 6, V23, Experiment 1 (18-03-10), OligoCF-5/20 +6% G
  MIC: 16^† μg/ml
[5]; [21]
  MIC: 8^† μg/ml
[5]; Table 6, V23, Experiment 2 (18-03-10), OligoCF-5/20 +2% G
  MIC: 64 µg/mL (≈ 117 µM)
[5]; [22]
  MIC: 32^† μg/ml
[5]; [23]
  MIC: 32^† μg/ml
[5]; Table 6, V23, Experiment 3 (19-03-10), OligoCF-5/20 +2% G
  MIC: 32^† μg/ml
[5]; [24]
  MIC: 16^† μg/ml
[5]; [25]
  MIC: 4^† μg/ml
[6]; ATCC15692, Table 1, PA01, OligoCF-5/20 0G
  MIC: < 1 µg/mL
[6]; ATCC15692, Table 1, PA01, OligoCF-5/20 +2% G
  MIC: < 1 µg/mL
[6]; ATCC15692, Table 1, PA01, OligoCF-5/20 +6% G
  MIC: < 1 µg/mL
[6]; ATCC15692, Table 1, PA01, OligoCF-5/20 +10% G
  MIC: < 1 µg/mL
[7]; Table 1, V2 MDR 301 PA, OligoCF-5/20 0G
  MIC: 32 µg/mL (≈ 58.5 µM)
[7]; Table 1, V2 MDR 301 PA, OligoCF-5/20 +2% G
  MIC: 16 µg/mL (≈ 29.3 µM)
[7]; Table 1, V2 MDR 301 PA, OligoCF-5/20 +6% G
  MIC: 8 µg/mL (≈ 14.6 µM)
[7]; Table 1, V2 MDR 301 PA, OligoCF-5/20 +10% G
  MIC: 4 µg/mL (≈ 7.32 µM)
[8]; [26]
  MIC: > 512 µg/mL
[8]; OligoCF-5/20 +2% G
  MIC: 512^† μg/ml
[8]; OligoCF-5/20 +6% G
  MIC: 512^† μg/ml
[8]; OligoCF-5/20 +10% G
  MIC: 256^† μg/ml
[9]; ATCC39324, Table 1, R79, OligoCF-5/20 0G
  MIC: < 1 µg/mL
[9]; ATCC39324, Table 1, R79, OligoCF-5/20 +2% G
  MIC: < 1 µg/mL
[9]; ATCC39324, Table 1, R79, OligoCF-5/20 +6% G
  MIC: < 1 µg/mL
[9]; ATCC39324, Table 1, R79, OligoCF-5/20 +10% G
  MIC: < 1 µg/mL
[10]; Table 1, R80, OligoCF-5/20 0G
  MIC: < 1 µg/mL
[10]; Table 1, R80, OligoCF-5/20 +2% G
  MIC: < 1 µg/mL
[10]; Table 1, R80, OligoCF-5/20 +6% G
  MIC: < 1 µg/mL
[10]; Table 1, R80, OligoCF-5/20 +10% G
  MIC: < 1 µg/mL
[11]; Table 8, G-block (OligoCF-5/20) 0%
  MIC: > 16 µg/mL
[11]; Table 8, G-block (OligoCF-5/20) 2%
  MIC: > 16 µg/mL
[11]; Table 8, G-block (OligoCF-5/20) 6%
  MIC: 16 µg/mL (≈ 29.3 µM)
[11]; [27]
  MIC: 16 µg/mL (≈ 29.3 µM)
MDR Pseudomonas strains
  effectiveness when used in combination with the alginate oligomers: more effective

## CC[C@H]1OC(=O)[C@H](C)[C@@H](O[C@H]2C[C@@](C)(OC)[C@@H](O)[C@H](C)O2)[C@H](C)[C@@H](O[C@@H]2O[C@H](C)C[C@H](N(C)C)[C@H]2O)[C@](C)(O)C[C@@H](C)C(=O)[C@H](C)[C@@H](O)[C@]1(C)O [Erythromycin]
[1]; [12]
  MIC: 8 µg/mL (≈ 10.9 µM)
[1]; [13]
  MIC: 2 µg/mL (≈ 2.73 µM)
[1]; [14]
  MIC: 1 µg/mL (≈ 1.36 µM)
[1]; [15]
  MIC: < 1 µg/mL
[3]; [16]
  MIC: < 0.5 µg/mL
[3]; OligoCF-5/20 +2% G
  MIC: <0.5 µg/mL
[3]; OligoCF-5/20 +6% G
  MIC: <0.5 µg/mL
[3]; OligoCF-5/20 +10% G
  MIC: <0.5 µg/mL
[4]; [12]
  MIC: < 2 µg/mL
[4]; [13]
  MIC: < 2 µg/mL
[4]; [14]
  MIC: < 2 µg/mL
[4]; [15]
  MIC: < 2 µg/mL
[5]; [17]
  MIC: 512 µg/mL (≈ 698 µM)
[5]; [18]
  MIC: 512 µg/mL (≈ 698 µM)
[5]; [19]
  MIC: > 512 µg/mL
[5]; [20]
  MIC: 16^† μg/ml
[5]; [21]
  MIC: 64^† μg/ml
[5]; [22]
  MIC: 64^† μg/ml
[5]; [23]
  MIC: 64^† μg/ml
[5]; [24]
  MIC: 64^† μg/ml
[5]; [25]
  MIC: 16^† μg/ml
[6]; ATCC15692, Table 4, PA01 non MDR, OligoCF-5/20 0G
  MIC: 128 µg/mL (≈ 174 µM)
[6]; ATCC15692, Table 4, PA01 non MDR, OligoCF-5/20 +2% G
  MIC: 64 µg/mL (≈ 87.2 µM)
[6]; ATCC15692, Table 4, PA01 non MDR, OligoCF-5/20 +6% G
  MIC: 64 µg/mL (≈ 87.2 µM)
[6]; ATCC15692, Table 4, PA01 non MDR, OligoCF-5/20 +10% G
  MIC: 16 µg/mL (≈ 21.8 µM)
[7]; Table 4, V2 MDR (Pol.), OligoCF-5/20 0G
  MIC: 128 µg/mL (≈ 174 µM)
[7]; Table 4, V2 MDR (Pol.), OligoCF-5/20 +6% G
  MIC: 64 µg/mL (≈ 87.2 µM)
[7]; Table 4, V2 MDR (Pol.), OligoCF-5/20 +10% G
  MIC: 16 µg/mL (≈ 21.8 µM)
V5 AIM-1 E. coli; OligoCF-5/20 0G
  MIC: 4 µg/mL (≈ 5.45 µM)
V5 AIM-1 E. coli; OligoCF-5/20 +2% G
  MIC: 4 µg/mL (≈ 5.45 µM)
V5 AIM-1 E. coli; OligoCF-5/20 +6% G
  MIC: ≤ 1 µg/mL
V5 AIM-1 E. coli; OligoCF-5/20 +10% G
  MIC: ≤ 1 µg/mL
[8]; [26]
  MIC: 8 µg/mL (≈ 10.9 µM)
[8]; OligoCF-5/20 +2% G
  MIC: 4^† μg/ml
[8]; OligoCF-5/20 +6% G
  MIC: 1^† μg/ml
[8]; OligoCF-5/20 +10% G
  MIC: <0.5^† μg/ml
[9]; ATCC39324, Table 4, R79 non MDR (muc.), OligoCF-5/20 0G
  MIC: 128 µg/mL (≈ 174 µM)
[9]; ATCC39324, Table 4, R79 non MDR (muc.), OligoCF-5/20 +2% G
  MIC: 64 µg/mL (≈ 87.2 µM)
[9]; ATCC39324, Table 4, R79 non MDR (muc.), OligoCF-5/20 +6% G
  MIC: 32 µg/mL (≈ 43.6 µM)
[9]; ATCC39324, Table 4, R79 non MDR (muc.), OligoCF-5/20 +10% G
  MIC: 2 µg/mL (≈ 2.73 µM)
[10]; Table 4, R80 non MDR (muc.), OligoCF-5/20 0G
  MIC: 512 µg/mL (≈ 698 µM)
[10]; Table 4, R80 non MDR (muc.), OligoCF-5/20 +6% G
  MIC: 128 µg/mL (≈ 174 µM)
[10]; Table 4, R80 non MDR (muc.), OligoCF-5/20 +10% G
  MIC: 32 µg/mL (≈ 43.6 µM)
[11]; [27]
  MIC: 64 µg/mL (≈ 87.2 µM)
